Data published in patent US12428406B2 (PMV Pharmaceuticals, Inc., priority 2019, dated 2025).

biological target: T1, p53 Y220C (Homo sapiens, UniProt P04637, Y220C); test: In vitro DNA binding activity assay (HTRF / TR-FRET): stabilization of p53 Y220C and increase of its DNA binding activity; format: biochemical; settings: recombinant His-tagged p53 Y220C DNA binding domain (aa 94-312), biotin-labeled consensus DNA, incubated at 27° C. or 29° C. for 60 min
T1 construct: The recombinant protein was a truncation mutant containing only amino acids 94-312 of p53; made in house; host or cells: E. coli
Method in brief: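 E. coli His-p53 Y220C + biotin consensus DNA; anti-His-APC/SA-Eu TR-FRET. SC150 vs no-compound.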

T1 sequence (P04637 94-312, change not shown): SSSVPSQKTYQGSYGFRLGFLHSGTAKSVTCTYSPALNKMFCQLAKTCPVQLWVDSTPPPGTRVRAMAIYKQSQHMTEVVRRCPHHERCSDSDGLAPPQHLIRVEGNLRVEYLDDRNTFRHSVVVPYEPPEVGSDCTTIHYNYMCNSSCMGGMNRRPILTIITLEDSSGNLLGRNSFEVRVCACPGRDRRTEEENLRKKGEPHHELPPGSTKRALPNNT

SC150 (concentration of the compound required to increase the DNA binding activity by 50%), + (+ = 0 μM ≤ SC150 < 0.05 μM):
CCC(=O)OC(C)CN1CCC(Nc2cccc3c2cc(C#CCNc2ccc(S(N)(=O)=O)cc2OC)n3CC(F)(F)F)CC1 (stereo not shown) [Compound 605A, 1-{4-[(2-{3-[(2-methoxy-4-sulfamoylphenyl)amino]prop-1-yn-1-yl}-1-(2,2,2-trifluoroethyl)-1H-indol-4-yl)amino]piperidin-1-yl} propan-2-yl propanoate]
COCC(O)CN1CCC(Nc2cccc3c2cc(C#CCNc2ccc(S(=O)(=O)NC(C)=O)cc2OC)n3CC(F)(F)F)CC1 (stereo not shown) [Compound 606A, N-(4-{[3-(4-{[1-(2-hydroxy-3-methoxypropyl)pipcridin-4-yl]amino}-1-(2,2,2-trifluoroethyl)-1H-indol-2-yl)prop-2-yn-1-yl]amino}-3-methoxybenzenesulfonyl) acetamide]
CCC(=O)NS(=O)(=O)c1ccc(NCC#Cc2cc3c(NC4CCN(CC(O)COC)CC4)cccc3n2CC(F)(F)F)c(OC)c1 (stereo not shown) [Compound 607A, N-(4-{[3-(4-{[1-(2-hydroxy-3-methoxypropyl)piperidin-4-yl]amino}-1-(2,2,2-trifluoroethyl)-1H-indol-2-yl)prop-2-yn-1-yl]amino}-3-methoxybenzenesulfonyl) propanamide]
CCC(=O)OCCN1CCC(Nc2cccc3c2cc(C#CCNc2ccc(S(N)(=O)=O)cc2OC)n3CC(F)(F)F)CC1 [Compound 608A, 2-{4-[(2-{3-[(2-methoxy-4-sulfamoylphenyl)amino]prop-1-yn-1-yl}-1-(2,2,2-trifluoroethyl)-1H-indol-4-yl)amino]piperidin-1-yl}ethyl propanoate]
CNS(=O)(=O)c1ccc(NCC#Cc2cc3c(NC4CCN(CC(O)COC)CC4)cccc3n2CC(F)(F)F)c(OC)c1 (stereo not shown) [Compound 609A]
CCC(=O)OC(COC)CN1CCC(Nc2cccc3c2cc(C#CCNc2ccc(S(N)(=O)=O)cc2OC)n3CC(F)(F)F)CC1 (stereo not shown) [Compound 610A, 1-methoxy-3-{4-[(2-{3-[(2-methoxy-4-sulfamoylphenyl)amino]prop-1-yn-1-yl}-1-(2,2,2-trifluoroethyl)-1H-indol-4-yl)amino]piperidin-1-yl} propan-2-yl propanoate]
COC[C@H](O)CN1CCC(Nc2cccc3c2cc(C#CCNc2ccc(S(C)(=O)=O)cc2OC)n3CC(F)(F)F)CC1 [Compound 611A, (2R)-1-{4-[(2-{3-[(4-methanesulfonyl-2-methoxyphenyl)amino]prop-1-yn-1-yl}-1-(2,2,2-trifluoroethyl)-1H-indol-4-yl)amino]piperidin-1-yl}-3-methoxypropan-2-ol]
COC[C@@H](O)CN1CCC(Nc2cccc3c2cc(C#CCNc2ccc(S(C)(=O)=O)cc2OC)n3CC(F)(F)F)CC1 [Compound 612A, (2S)-1-{4-[(2-{3-[(4-methanesulfonyl-2-methoxyphenyl)amino]prop-1-yn-1-yl}-1-(2,2,2-trifluoroethyl)-1H-indol-4-yl)amino]piperidin-1-yl}-3-methoxypropan-2-ol]
COc1cc(C(N)=O)ccc1NCC#Cc1cc2c(N[C@H]3CC[C@@H](N(C)C)CC3)cccc2n1CC(F)(F)F [Compound 613A, 3-methoxy-4-{[3-(4-{[(1S,4S)-4-(dimethylamino)cyclohexyl]amino}-1-(2,2,2-trifluoroethyl)-1H-indol-2-yl)prop-2-yn-1-yl]amino}benzamide]
CNC(=O)c1ccc(NCC#Cc2cc3c(NC4CCN(CCOC)CC4)cccc3n2CC(F)(F)F)c(OC)c1 [Compound 616A, 3-methoxy-4-{[3-(4-{[1-(2-methoxyethyl)piperidin-4-yl]amino}-1-(2,2,2-trifluoroethyl)-1H-indol-2-yl)prop-2-yn-1-yl]amino}-N-methylbenzamide]
CNS(=O)(=O)c1ccc(NCC#Cc2cc3c(NC4CCN(CCOC)CC4)cccc3n2CC(F)(F)F)c(OC)c1 [Compound 617A, 3-methoxy-4-{[3-(4-{[1-(2-methoxyethyl)piperidin-4-yl]amino}-1-(2,2,2-trifluoroethyl)-1H-indol-2-yl)prop-2-yn-1-yl]amino}-N-methylbenzene-1-sulfonamide]
COc1cc(S(N)(=O)=O)ccc1NCC#Cc1cc2c(NC3CCN(CCOC(C)=O)CC3)cccc2n1CC(F)(F)F [Compound 618A]
COCC(CN1CCC(Nc2cccc3c2cc(C#CCNc2ccc(S(N)(=O)=O)cc2OC)n3CC(F)(F)F)CC1)OC(C)=O (stereo not shown) [Compound 619A, 1-methoxy-3-{4-[(2-{3-[(2-methoxy-4-sulfamoylphenyl)amino]prop-1-yn-1-yl}-1-(2,2,2-trifluoroethyl)-1H-indol-4-yl)amino]piperidin-1-yl}propan-2-yl acetate]
COCC(O)CN1CCC(Nc2cccc3c2cc(C#CCNc2ccc(C(N)=O)cc2OC)n3CC(F)(F)F)CC1 (stereo not shown) [Compound 620A, 4-{[3-(4-{[1-(2-hydroxy-3-methoxypropyl)piperidin-4-yl]amino}-1-(2,2,2-trifluoroethyl)-1H-indol-2-yl)prop-2-yn-1-yl]amino}-3-methoxybenzamide]
COCC(O)CN1CCC(Nc2cccc3c2cc(C#CCNc2ccc(S(C)(=O)=O)cc2O)n3CC(F)(F)F)CC1 (stereo not shown) [Compound 621A, 2-{[3-(4-{[1-(2-hydroxy-3-methoxypropyl)piperidin-4-yl]amino}-1-(2,2,2-trifluoroethyl)-1H-indol-2-yl)prop-2-yn-1-yl]amino}-5-methanesulfonylphenol]
COCC(O)CN1CCC(Nc2cccc3c2cc(C#CCNc2ccc(S(=O)(=O)N(C)C)cc2OC)n3CC(F)(F)F)CC1 (stereo not shown) [Compound 622A]
COc1cc(S(N)(=O)=O)ccc1NCC#Cc1cc2c(NC3CCN(C[C@H](CO)OC)CC3)cccc2n1CC(F)(F)F [Compound 623A, 4-({3-[4-({1-[(2R)-3-hydroxy-2-methoxypropyl]piperidin-4-yl}amino)-1-(2,2,2-trifluoroethyl)-1H-indol-2-yl]prop-2-yn-1-yl}amino)-3-methoxybenzene-1-sulfonamide]
CCC(=O)N(C)S(=O)(=O)c1ccc(NCC#Cc2cc3c(NC4CCN(CC(O)COC)CC4)cccc3n2CC(F)(F)F)c(OC)c1 (stereo not shown) [Compound 624A, N-(4-{[3-(4-{[1-(2-hydroxy-3-methoxypropyl)piperidin-4-yl]amino}-1-(2,2,2-trifluoroethyl)-1H-indol-2-yl)prop-2-yn-1-yl]amino}-3-methoxybenzenesulfonyl)-N-methylpropanamide]
COCC(O)CN1CCC(Nc2cccc3c2cc(C#CCNc2ccc(S(C)(=O)=O)cc2OCCF)n3CC(F)(F)F)CC1 (stereo not shown) [Compound 625A, 1-(4-{[2-(3-{[2-(2-fluoroethoxy)-4-methanesulfonylphenyl]amino}prop-1-yn-1-yl)-1-(2,2,2-trifluoroethyl)-1H-indol-4-yl]amino}piperidin-1-yl)-3-methoxypropan-2-ol]
CCC(=O)NS(=O)(=O)c1ccc(NCC#Cc2cc3c(NC4CCN(CC(COC)OC(=O)CC)CC4)cccc3n2CC(F)(F)F)c(OC)c1 (stereo not shown) [Compound 627A, 1-methoxy-3-(4-{[2-(3-{[2-methoxy-4-(propanamidosulfonyl)phenyl]amino}prop-1-yn-1-yl)-1-(2,2,2-trifluoroethyl)-1H-indol-4-yl]amino}piperidin-1-yl)propan-2-yl propanoate]
CCC(=O)NS(=O)(=O)c1ccc(NCC#Cc2cc3c(NC4CCN(CC(COC(=O)CC)OC(=O)CC)CC4)cccc3n2CC(F)(F)F)c(OC)c1 (stereo not shown) [Compound 628A, 1-(4-{[2-(3-{[2-methoxy-4-(propanamidosulfonyl)phenyl]amino}prop-1-yn-1-yl)-1-(2,2,2-trifluoroethyl)-1H-indol-4-yl]amino}piperidin-1-yl)-3-(propanoyloxy)propan-2-yl propanoate]
COc1cc(S(C)(=O)=O)ccc1NCC#Cc1cc2c(NC3CCN(C[C@H](CO)OC)CC3)cccc2n1CC(F)(F)F [Compound 629A, (2R)-3-{4-[(2-{3-[(4-methanesulfonyl-2-methoxyphenyl)amino]prop-1-yn-1-yl}-1-(2,2,2-trifluoroethyl)-1H-indol-4-yl)amino]piperidin-1-yl}-2-methoxypropan-1-ol]
